Experiments:
PDGFRβ kinase = PDGFRβ kinase (Homo sapiens (Human), UniProt P09619); assay: PDGFRβ kinase assay (radiometric); format: biochemical
How it was run: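 Radiometric assay: recombinant PDGFRβ with poly(Glu4:Tyr1) in MOPS pH 7.0 buffer containing Mg2+/Mn2+, 10 μM ATP plus [33P]-ATP, and compound at 4% DMSO final. Incubated 60 min at 30° C, stopped with phosphoric acid, filter-captured and scintillation-counted. IC50 from curve fitting.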

[1] = test system: MV4-11 human acute myeloid leukemia cell with FLT3-ITD mutation; assay: MV4-11 cell proliferation assay (CellTiter-96); format: cell-based; conditions: Cytotoxicity, MV4-11 cells, 72 hours
How it was run: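 MV4-11 cells (FLT3-ITD, FLT3-dependent growth) seeded at 6500 cells/well, incubated overnight at 37° C., 5% CO2, then exposed to increasing compound concentrations for 72 hours. Viability read by CellTiter96 AQueous One reagent (4 hours), absorbance at 490 nm.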

CSF-1R kinase = CSF-1R kinase (Homo sapiens (Human), UniProt P07333); assay: CSF-1R kinase assay (AlphaScreen); format: biochemical; conditions: class symbol
Procedure: Inhibition of CSF-1R kinase activity by a test compound disclosed herein was estimated by AlphaScreen (PerkinElmer). […] Reactions were incubated at 30° C. for 45 min and stopped by adding 5 μL of 50 mM EDTA. Analysis of resulting product using an AlphaScreen kit, and counted with Enspire Alpha (PerkinElmer). […] The IC50 values of quinoxaline compounds of this invention against CSF-1R kinase were determined using the GraphPad Prism 5 software.

c-KIT kinase = c-KIT kinase (Homo sapiens (Human), UniProt P10721); assay: c-KIT kinase assay (radiometric); format: biochemical
How it was run: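 Recombinant c-Kit (20 ng) with 2 μg Poly-(Glu4:Tyr1) in MOPS pH 7.0 buffer with MgCl2/MnCl2, 10 μM ATP plus [^33P]-ATP, 4% DMSO final, 60 min at 30° C. Stopped with phosphoric acid, filter-captured and scintillation counted; IC50 from curve fit.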

FLT3 kinase = FLT3 kinase (Homo sapiens (Human), UniProt P36888); assay: FLT3 kinase assay (radiometric); format: biochemical
How it was run: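 Recombinant FLT3 (5 ng) phosphorylating poly(Glu4:Tyr1) (2 μg) with 10 μM ATP plus [^33P]-ATP in MOPS pH 7.0 buffer, 4% DMSO final, 60 min at 30° C. Reaction stopped with phosphoric acid, filter-captured and scintillation-counted; IC50 derived from dose-response.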

[2] = test system: THP-1 human acute monocytic leukemia cell harboring NRAS G12D mutation; assay: THP-1 cell proliferation assay (counter screen, CellTiter-96); format: cell-based; conditions: Cytotoxicity, THP-1 cells (counter screen), 72 hours
How it was run: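 THP-1 cells, RTK-independent owing to NRAS G12D, seeded at 5000/well, incubated overnight at 37 °C/5% CO2, then exposed to increasing compound concentrations for 72 h. CellTiter96 AQueous One reagent added for 4 h; viability from absorbance at 490 nm.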

[3] = test system: Kasumi-1 human acute myeloid leukemia cell with c-KIT N822K activating mutation; assay: Kasumi-1 cell proliferation assay (CellTiter-96); format: cell-based; conditions: Cytotoxicity, Kasumi-1 cells, 72 hours
How it was run: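 Kasumi-1 cells, seeded at 64000 cells/well and incubated overnight at 37 °C, were exposed to increasing compound concentrations for 72 h. Viability was measured by CellTiter96 AQueous One reagent (4 h) and absorbance at 490 nm.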

[4] = test system: osteoclast precursors (osteoclast differentiation); assay: Osteoclast tartrate-resistant acid phosphatase assay; format: cell-based; conditions: 168 h, at 1 μM treatment, 7 days, RANKL and M-CSF, read-out: inhibition activity against osteoclast differentiation
How it was run: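 Differentiation inhibition was scored at 1 μM compound in duplicate, using supernatant TRAP activity read at 550 nm with an acid phosphatase kit.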

[5] = test system: CSF-1-dependent M-NFS-60 mouse myeloid leukemia cell; assay: M-NFS-60 cell proliferation assay (CellTiter-96); format: cell-based; conditions: Cytotoxicity, M-NFS-60 cells, 72 hours
How it was run: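 CSF-1-dependent M-NFS-60 cells seeded at 2000 cells/well, settled overnight at 37 °C, 5% CO2, then exposed to increasing compound concentrations for 72 h. Viability read by CellTiter 96 AQueous One reagent (4 h) at 490 nm absorbance.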

Sequence of PDGFRβ kinase (P09619 33-1106): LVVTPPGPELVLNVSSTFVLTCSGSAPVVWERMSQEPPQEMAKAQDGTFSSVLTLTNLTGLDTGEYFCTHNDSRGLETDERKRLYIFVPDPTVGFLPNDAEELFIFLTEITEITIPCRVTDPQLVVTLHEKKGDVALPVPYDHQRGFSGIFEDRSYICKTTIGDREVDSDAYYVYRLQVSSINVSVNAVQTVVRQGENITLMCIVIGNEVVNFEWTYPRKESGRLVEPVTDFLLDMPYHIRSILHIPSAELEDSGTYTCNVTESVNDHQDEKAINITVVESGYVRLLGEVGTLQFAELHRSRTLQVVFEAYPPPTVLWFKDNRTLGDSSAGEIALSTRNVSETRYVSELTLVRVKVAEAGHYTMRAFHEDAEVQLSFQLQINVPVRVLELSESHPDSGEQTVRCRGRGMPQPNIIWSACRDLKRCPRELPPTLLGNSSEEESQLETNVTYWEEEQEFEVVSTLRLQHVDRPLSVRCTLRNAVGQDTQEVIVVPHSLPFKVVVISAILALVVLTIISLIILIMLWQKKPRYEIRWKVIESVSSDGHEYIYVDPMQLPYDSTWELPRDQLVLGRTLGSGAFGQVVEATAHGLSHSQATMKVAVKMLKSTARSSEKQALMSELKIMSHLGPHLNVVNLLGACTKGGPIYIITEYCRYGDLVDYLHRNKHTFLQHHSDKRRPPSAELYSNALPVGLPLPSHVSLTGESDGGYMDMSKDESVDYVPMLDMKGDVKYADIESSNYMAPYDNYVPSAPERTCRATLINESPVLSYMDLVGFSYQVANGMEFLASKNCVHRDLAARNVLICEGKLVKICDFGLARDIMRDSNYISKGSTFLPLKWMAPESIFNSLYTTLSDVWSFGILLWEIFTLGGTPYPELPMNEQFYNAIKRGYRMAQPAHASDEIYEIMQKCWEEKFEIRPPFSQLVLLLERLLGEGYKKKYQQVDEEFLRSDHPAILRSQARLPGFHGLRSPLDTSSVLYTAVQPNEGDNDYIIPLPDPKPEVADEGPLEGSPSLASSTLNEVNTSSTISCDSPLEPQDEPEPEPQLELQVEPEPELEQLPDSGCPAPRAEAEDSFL
Sequence of FLT3 kinase (P36888 27-993): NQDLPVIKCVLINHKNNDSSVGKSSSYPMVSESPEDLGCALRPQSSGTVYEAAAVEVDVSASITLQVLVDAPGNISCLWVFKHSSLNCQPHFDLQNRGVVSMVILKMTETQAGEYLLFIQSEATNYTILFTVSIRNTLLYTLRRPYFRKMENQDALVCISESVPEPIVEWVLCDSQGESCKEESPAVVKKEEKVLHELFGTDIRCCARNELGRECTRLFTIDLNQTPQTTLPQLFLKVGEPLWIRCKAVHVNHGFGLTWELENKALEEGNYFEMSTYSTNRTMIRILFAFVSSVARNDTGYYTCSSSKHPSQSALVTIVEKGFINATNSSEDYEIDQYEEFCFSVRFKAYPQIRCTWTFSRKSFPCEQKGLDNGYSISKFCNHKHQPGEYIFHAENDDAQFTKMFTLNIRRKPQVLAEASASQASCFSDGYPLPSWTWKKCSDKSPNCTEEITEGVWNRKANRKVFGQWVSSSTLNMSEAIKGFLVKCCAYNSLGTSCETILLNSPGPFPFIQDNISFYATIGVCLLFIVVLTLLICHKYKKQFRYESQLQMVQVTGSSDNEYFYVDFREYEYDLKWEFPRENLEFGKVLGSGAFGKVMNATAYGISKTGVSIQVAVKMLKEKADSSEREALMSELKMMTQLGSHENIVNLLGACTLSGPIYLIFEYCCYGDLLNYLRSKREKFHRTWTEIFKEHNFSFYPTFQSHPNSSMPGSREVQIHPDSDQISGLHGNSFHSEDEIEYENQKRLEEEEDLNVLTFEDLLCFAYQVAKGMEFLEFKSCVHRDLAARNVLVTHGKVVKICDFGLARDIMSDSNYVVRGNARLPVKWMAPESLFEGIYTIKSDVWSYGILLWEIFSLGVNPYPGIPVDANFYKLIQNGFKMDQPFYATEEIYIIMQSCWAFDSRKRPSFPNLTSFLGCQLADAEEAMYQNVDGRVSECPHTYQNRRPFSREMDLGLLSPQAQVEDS
Sequence of CSF-1R kinase (P07333 20-972): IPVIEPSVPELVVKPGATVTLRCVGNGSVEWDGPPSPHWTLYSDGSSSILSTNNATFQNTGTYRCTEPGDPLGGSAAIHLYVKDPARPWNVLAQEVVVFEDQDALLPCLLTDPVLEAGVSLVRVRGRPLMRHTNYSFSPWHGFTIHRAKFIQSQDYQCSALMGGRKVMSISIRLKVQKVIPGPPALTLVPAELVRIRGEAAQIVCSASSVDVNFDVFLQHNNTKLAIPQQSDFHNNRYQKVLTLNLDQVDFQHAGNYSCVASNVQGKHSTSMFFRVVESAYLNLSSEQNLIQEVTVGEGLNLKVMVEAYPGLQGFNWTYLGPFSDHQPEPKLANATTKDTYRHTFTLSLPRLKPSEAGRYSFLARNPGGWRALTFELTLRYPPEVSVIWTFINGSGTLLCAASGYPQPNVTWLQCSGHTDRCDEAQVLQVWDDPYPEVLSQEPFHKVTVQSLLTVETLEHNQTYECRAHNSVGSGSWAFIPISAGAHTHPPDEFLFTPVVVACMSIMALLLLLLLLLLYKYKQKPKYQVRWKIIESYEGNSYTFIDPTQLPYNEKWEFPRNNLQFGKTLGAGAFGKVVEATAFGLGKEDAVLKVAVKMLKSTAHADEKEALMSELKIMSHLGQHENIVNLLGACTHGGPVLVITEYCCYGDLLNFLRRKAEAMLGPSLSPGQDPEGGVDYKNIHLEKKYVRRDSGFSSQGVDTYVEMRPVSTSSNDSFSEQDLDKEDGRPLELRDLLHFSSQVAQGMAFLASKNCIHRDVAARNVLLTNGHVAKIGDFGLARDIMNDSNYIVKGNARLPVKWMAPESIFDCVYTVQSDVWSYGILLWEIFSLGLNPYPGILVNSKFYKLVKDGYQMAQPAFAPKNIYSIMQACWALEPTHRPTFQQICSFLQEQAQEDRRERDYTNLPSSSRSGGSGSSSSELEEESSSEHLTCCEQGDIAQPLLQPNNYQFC
Sequence of c-KIT kinase (P10721 26-976): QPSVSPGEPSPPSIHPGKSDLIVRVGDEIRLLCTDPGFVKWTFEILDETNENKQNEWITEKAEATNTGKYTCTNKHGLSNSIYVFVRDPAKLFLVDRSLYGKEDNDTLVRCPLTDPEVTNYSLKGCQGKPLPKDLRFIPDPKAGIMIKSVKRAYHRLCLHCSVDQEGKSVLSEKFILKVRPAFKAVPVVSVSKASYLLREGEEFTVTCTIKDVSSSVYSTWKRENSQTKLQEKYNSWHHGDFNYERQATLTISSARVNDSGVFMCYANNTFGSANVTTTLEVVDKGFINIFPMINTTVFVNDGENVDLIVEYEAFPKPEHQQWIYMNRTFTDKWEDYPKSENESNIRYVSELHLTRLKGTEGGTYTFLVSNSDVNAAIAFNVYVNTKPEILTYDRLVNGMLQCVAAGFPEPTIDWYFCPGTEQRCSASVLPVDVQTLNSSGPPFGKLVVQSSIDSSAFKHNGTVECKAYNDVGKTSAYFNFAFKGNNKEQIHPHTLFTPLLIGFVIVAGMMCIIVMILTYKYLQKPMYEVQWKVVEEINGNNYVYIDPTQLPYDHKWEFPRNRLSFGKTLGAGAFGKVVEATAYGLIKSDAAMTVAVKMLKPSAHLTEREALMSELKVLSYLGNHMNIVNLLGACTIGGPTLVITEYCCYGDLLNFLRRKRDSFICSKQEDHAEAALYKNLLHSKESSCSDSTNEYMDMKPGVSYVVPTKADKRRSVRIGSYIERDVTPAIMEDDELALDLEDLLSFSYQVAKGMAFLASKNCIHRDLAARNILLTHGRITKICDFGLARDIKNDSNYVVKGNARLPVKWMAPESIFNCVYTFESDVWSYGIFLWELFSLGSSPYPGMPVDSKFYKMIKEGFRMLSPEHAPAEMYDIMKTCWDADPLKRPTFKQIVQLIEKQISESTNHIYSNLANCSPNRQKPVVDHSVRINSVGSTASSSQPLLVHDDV

Row | SMILES | IC50 (PDGFRβ kinase; bound) [nM] | IC50 [1] [nM] | IC50 (CSF-1R kinase) [nM] | IC50 (c-KIT kinase; class symbol) [nM] | IC50 (FLT3 kinase; class symbol) [nM] | IC50 [2] [nM] | IC50 [3] [nM] | inhibition at 1 µM [4] [%] | IC50 [5] [nM] | IC50 (PDGFRβ kinase; class symbol) [nM] | IC50 (FLT3 kinase; bound) [nM] | IC50 (c-KIT kinase; bound) [nM]
1 | COc1ccc(COc2ccc(Nc3ccc4ncc(N5CCOCC5)nc4c3C#N)cn2)cc1 [Example 52, 6-((6-((4-methoxybenzyl)oxy)pyridin-3-yl)amino)-3-morpholinoquinoxaline-5-carbonitrile] | > 1000 | < 300 | < 100 | 100 to 300 | 300 to 1000 | > 10000 | 300 to 1000 | > 50 | 300 to 1000 |  |  | 
2 | COc1ccc(COc2ccc(Nc3ccc4ncc(N5CCN(C(C)=O)CC5)nc4c3C#N)cc2OC)cc1 [Example 72, 3-(4-acetylpiperazin-1-yl)-6-((3-methoxy-4-((4-methoxybenzyl)oxy)phenyl)amino)quinoxaline-5-carbonitrile] |  | > 10000 | < 100 | < 100 |  | > 10000 | < 300 | > 50 | < 300 | 300 to 1000 | > 1000 | 
3 | COCCN1CCN(c2cnc3ccc(Nc4ccc(OCc5ccc(C)nc5)c(OC)c4)c(C#N)c3n2)CC1 [Example 100, 6-((3-methoxy-4-((6-methylpyridin-3-yl)methoxy)phenyl)amino)-3-(4-(2-methoxyethyl)piperazin-1-yl)quinoxaline-5-carbonitrile] | > 1000 | 1000 to 10000 | < 100 | 100 to 300 |  | > 10000 | 300 to 1000 | > 50 | < 300 |  | > 1000 | 
4 | COc1ccc(COc2ccc(Nc3ccc4ncc(N5CCOCC5)nc4c3C#N)cc2F)cc1 [Example 56, 6-((3-fluoro-4-((4-methoxybenzyl)oxy)phenyl)amino)-3-morpholinoquinoxaline-5-carbonitrile] | > 1000 | 300 to 1000 | < 100 | 100 to 300 |  | > 10000 | 1000 to 10000 | > 50 | 300 to 1000 |  | > 1000 | 
5 | COc1ccc(COc2ccc(Nc3ccc4ncc(N5CCN(C)CC5)nc4c3C#N)cc2OC)cc1 [Example 31, 6-((3-methoxy-4-((4-methoxybenzyl)oxy)phenyl)amino)-3-(4-methylpiperazin-1-yl)quinoxaline-5-carbonitrile] |  | 1000 to 10000 | < 100 | < 100 |  | > 10000 | < 300 | > 50 | < 300 | 300 to 1000 | > 1000 | 
6 | COc1ccc(COc2ccc(Nc3ccc4ncc(N5CCC(N6CCOCC6)CC5)nc4c3C#N)cc2OC)cn1 [Example 102, 6-((3-methoxy-4-((6-methoxypyridin-3-yl)methoxy)phenyl)amino)-3-(4-morpholinopiperidin-1-yl)quinoxaline-5-carbonitrile] | > 1000 | > 10000 | < 100 | 100 to 300 |  | > 10000 | < 300 | > 50 | < 300 |  | > 1000 | 
7 | COc1cc(Nc2ccc3ncc(N4CCOCC4)nc3c2C#N)ccc1OCc1ccc(C2CC2)nc1 [Example 120, 6-((4-((6-cyclopropylpyridin-3-yl)methoxy)-3-methoxy-phenyl)amino)-3-morpholinoquinoxaline-5-carbonitrile] | > 1000 | > 10000 | < 100 | < 100 |  | > 10000 | < 300 | > 50 | < 300 |  | > 1000 | 
8 | C=C(C)c1cnc2ccc(Nc3ccc(OCc4ccc(OC)cc4)c(OC)c3)c(C#N)c2n1 [Example 108, 6-((3-methoxy-4-((4-methoxybenzyl)oxy)phenyl)amino)-3-(prop-1-en-2-yl)quinoxaline-5-carbonitrile] | > 1000 | > 10000 | < 100 |  |  | > 10000 | > 10000 | > 50 | 1000 to 10000 |  | > 1000 | > 1000
9 | COc1ccc(COc2ccc(Nc3ccc4ncc(N5CCC(N(C)C)CC5)nc4c3C#N)cc2OC)cn1 [Example 82, 3-(4-(dimethylamino)piperidin-1-yl)-6-((3-methoxy-4-((6-methoxy-pyridin-3-yl)methoxy)phenyl)amino)quinoxaline-5-carbonitrile] | > 1000 | 1000 to 10000 | < 100 | 100 to 300 |  | 1000 to 10000 | < 300 | > 50 | < 300 |  | > 1000 | 
10 | COc1cc(Nc2ccc3ncc(N4CCOCC4)nc3c2C#N)ccc1OCc1ccc(CF)nc1 [Example 110, 6-((4-((6-(fluoromethyl)pyridin-3-yl)methoxy)-3-methoxyphenyl)amino)-3-morpholinoquinoxaline-5-carbonitrile] | > 1000 | 1000 to 10000 | < 100 | 100 to 300 |  | > 10000 | 1000 to 10000 | > 50 | < 300 |  | > 1000 | 
11 | COc1ccc(COc2ccc(Nc3ccc4ncc(N5CCC(OC(C)=O)CC5)nc4c3C#N)cc2OC)cc1 [Example 68, 1-(8-cyano-7-((3-methoxy-4-((4-methoxybenzyl)oxy)phenyl)amino)quinoxalin-2-yl)piperidin-4-yl acetate] | > 1000 | 1000 to 10000 | < 100 | < 100 |  | > 10000 | < 300 | > 50 | < 300 |  | > 1000 | 
12 | COc1ccc(COc2ccc(Nc3ccc4ncc(N5CCOCC5)nc4c3C#N)cc2OC)cc1 [Example 16, 6-((3-methoxy-4-((4-methoxybenzyl)oxy)phenyl)amino)-3-morpholinoquinoxaline-5-carbonitrile] | > 1000 | > 10000 | < 100 | < 100 |  | > 10000 | < 300 | > 50 | < 300 |  | > 1000 | 
13 | COc1ccc(COc2ccc(Nc3ccc4ncc(N(C)C)nc4c3C#N)cc2OC)cc1 [Example 7, 3-(dimethylamino)-6-((3-methoxy-4-((4-methoxybenzyl)oxy)phenyl)amino)quinoxaline-5-carbonitrile] | > 1000 | > 10000 | < 100 | < 100 |  | > 10000 | < 300 | > 50 | < 300 |  | > 1000 | 
14 | COc1cc(Nc2ccc3ncc(N4CCOCC4)nc3c2C#N)ccc1OCc1ccc(C(C)C)nc1 [Example 103, 6-((4-((6-isopropylpyridin-3-yl)methoxy)-3-methoxyphenyl)amino)-3-morpholinoquinoxaline-5-carbonitrile] | > 1000 | 1000 to 10000 | < 100 | < 100 |  | > 10000 | < 300 | > 50 | < 300 |  | > 1000 | 
15 | COc1cc(Nc2ccc3ncc(N4CCOCC4)nc3c2C#N)ccc1OCc1ccc2c(c1)CCO2 [Example 45, 6-((4-((2,3-dihydrobenzofuran-5-yl)methoxy)-3-methoxyphenyl)amino)-3-morpholinoquinoxaline-5-carbonitrile] | > 1000 | > 10000 | < 100 | < 100 |  | > 10000 | 300 to 1000 | > 50 | < 300 |  | > 1000 | 

— patent US10689362B2, “Quinoxaline compounds as type III receptor tyrosine kinase inhibitors” (Development Center for Biotechnology, priority 2016, dated 2020)
